pIC50: −log10 of the molar value. Read-outs that look alike come from different tables or passages of the source.
Legend:
cytokine release = experiment: Panel of standard cell-based in vitro assays evaluating cytokine release inhibition; conditions: prodrugs compared to the steroid drugs (Examples 27 and 62, respectively)
Procedure: The selected compounds of the invention were tested in a panel of standard, cell-based in vitro assays evaluating the cytokine release inhibition and thus the anti-inflammatory activity of a test article. Several potent steroid analogs were identified, namely compounds described in Examples 23, 27, 43, 59 and 62. […] Therefore by masking the pharmacological properties of a respective steroid the mutual prodrug mitigates the oropharyngeal side effects and confines the antiinflammatory activity of a steroid to the endobronchial space, where the lung enzymes (specifically alkaline phosphatase) release the pharmacologically active steroid (see Examples 141-143).

alkaline phosphatase = experiment: Conversion of mutual prodrugs after exposure to alkaline phosphatase (ALP experiment); conditions: for course in the reaction solution (with enzyme): alkaline phosphatase ~600 ng/μl, pH 7.4, 37° C., LCMS; for Prodrug 16 Concentration / Steroid 13 Concentration: mutual prodrug 16 + alkaline phosphatase;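 for all read-outs here: mutual prodrug and its released products quantified by LCMS over time in buffer with alkaline phosphatase, compared against enzyme-free control buffer, incubations running 25–50 hours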
Procedure: Reaction and control solutions were prepared by adding a 500 μL aliquot of a ˜200 ng/μl solution in 1:1 acetonitrile/water of and the compound 16 (or alternatively 17) to 500 μl of a pH 7.4 buffer solution, containing 5 mM tris(hydroxymethyl)aminomethane, 1 mM ZnCl2, 1 mM MgCl2. For the reaction solutions, the buffer also contained approximately 600 ng/μl of alkaline phosphatase (Sigma-Aldrich) whereas the control buffer solutions contained no enzyme. The reaction and control solutions were incubated at 37° C. for 25 to 50 hours. The solutions were analyzed periodically for the respective mutual prodrug and reaction products by LCMS.
The concentration of the alkaline phosphatase in the reaction buffer was ˜600 ng/μL (the enzyme activity of the solution was not determined).
The concentration of the alkaline phosphatase in the buffer added to the stock solution was ˜600 ng/μl (the enzyme activity of the solution was not determined).

[1] = Control solution without enzyme (pH 7.4 buffer, 37° C.); format: physicochemical; conditions: 25 to 50 hours, LCMS
TNF-α = TNF-α secretion (h) (PBMC); format: cell-based, human; conditions: for pIC50: read-out: TNF-α secretion IC50
[2] = test system: splenic lymphocytes isolated from C57BL/6 mice and CBA mice; experiment: Immunosuppression ([3H]TMD incorporation in mouse splenic lymphocytes); format: cell-based
IL-1β = IL-1β secretion (h) (PBMC); format: cell-based; conditions: Homo sapiens, LPS (1 μg/ml), 24 h/37° C., EIA
[3] = mutual prodrug 17 + alkaline phosphatase, 2.10 Hours @ 37° C.
[4] = Mus musculus, Splenic lymphocyte, read-out: Immunosuppresion IC50
[5] = LPS (1 μg/ml), 24 h/37° C., EIA, "Not active" = less than 25% inhibition at highest tested concentration 1000 nM
[6] = Mus musculus, Splenic lymphocyte, read-out: Immunosuppresion IC50, mouse splenic lymphocytes, 72 h/37° C., [3H]TMD incorporation, "Not active" = less than 25% inhibition at 1000 nM

SMILES: C[C@]12C=CC(=O)C=C1CCC1C3C[C@H]4OC(c5ccc[n+](Cc6ccc(C(O)CNCCCCCCOCCCCc7ccccc7)cc6OP(=O)(O)O)c5)O[C@@]4(C(=O)CO)[C@@]3(C)C[C@H](O)[C@@]12F (stereo partly drawn) [Example 133]
- anti-inflammatory activity (cytokine release inhibition), assessment in words (cytokine release): less active or inactive
- course in the reaction solution (with enzyme) (alkaline phosphatase): disappearance of the mutual prodrug
- Prodrug 17 Concentration (alkaline phosphatase; mutual prodrug 17 + alkaline phosphatase, 0.00 Hours @ 37° C.): 214.4 nmol/mL
- Prodrug 17 Concentration (alkaline phosphatase; mutual prodrug 17 + alkaline phosphatase, 0.53 Hours @ 37° C.): 112.6 nmol/mL
- Prodrug 17 Concentration (alkaline phosphatase; mutual prodrug 17 + alkaline phosphatase, 1.05 Hours @ 37° C.): 44.9 nmol/mL
- Prodrug 17 Concentration (alkaline phosphatase; [3]): 9.8 nmol/mL
- Prodrug 17 Concentration (alkaline phosphatase; mutual prodrug 17 + alkaline phosphatase, 3.16 Hours @ 37° C.): 4.2 nmol/mL
- Prodrug 17 Concentration (alkaline phosphatase; mutual prodrug 17 + alkaline phosphatase, 4.21 Hours @ 37° C.): 3.7 nmol/mL
- Prodrug 17 Concentration (alkaline phosphatase; mutual prodrug 17 + alkaline phosphatase, 10.52 Hours @ 37° C.): 0.0 nmol/mL
- Prodrug 17 Concentration (alkaline phosphatase; mutual prodrug 17 + alkaline phosphatase, 19.99 Hours @ 37° C.): 0.0 nmol/mL
- Prodrug 17 Concentration (alkaline phosphatase; mutual prodrug 17 + alkaline phosphatase, 29.46 Hours @ 37° C.): 0.0 nmol/mL
- Prodrug 17 Concentration (alkaline phosphatase; mutual prodrug 17 + alkaline phosphatase, 39.99 Hours @ 37° C.): 0.0 nmol/mL
- Prodrug 17 Concentration (alkaline phosphatase; mutual prodrug 17 + alkaline phosphatase, 49.46 Hours @ 37° C.): 0.0 nmol/mL
- compounds detected in the control solution (without enzyme) [1]: Only the mutual prodrug 17 was detected
- pIC50 (TNF-α; Homo sapiens, 24 h): < 6.00
- pIC50 [2, 4]: 6.74

SMILES: CN1CCC(C2O[C@@H]3C[C@H]4[C@@H]5CCC6=CC(=O)C=C[C@]6(C)[C@H]5[C@@H](O)C[C@]4(C)[C@]3(C(=O)CO)O2)CC1 (stereo partly drawn) [Example 56, 16,17-[(1-Methylpiperidyl-4-methylene)bis(oxy)]-11,21-dihydroxypregna-1,4-diene-3,20-dione[11β,16α]]
- pIC50 (IL-1β): < 6.00
- TNF-α secretion IC50 (TNF-α; [5]): Not active
- Immunosuppresion IC50 ([2]; mouse splenic lymphocytes, 72 h/37° C., [3H]TMD incorporation, "Not active" = less than 25% inhibition at 1000 nM): Not active

SMILES: C[C@]12C=CC(=O)C=C1CC[C@@H]1[C@@H]2[C@@H](O)C[C@@]2(C)[C@H]1C[C@H]1O[C@@H](C3CCCCC3)O[C@]12C(=O)CO [Example 22, 16,17-[(Cyclohexylmethylene)bis(oxy)]-11,21-dihydroxypregna-1,4-diene-3,20-dione[11β,16α(R)]]
- pIC50 (IL-1β): 8.68
- pIC50 (TNF-α; Homo sapiens, 24 h, LPS (1 μg/ml), 24 h/37° C., EIA, "Not active" = less than 25% inhibition at highest tested concentration 1000 nM): 7.92
- pIC50 [2, 6]: 8.82

SMILES: CN1CCN(CC(=O)[C@@]23O[C@H](C4CCCCC4)O[C@@H]2C[C@H]2[C@@H]4CCC5=CC(=O)C=C[C@]5(C)[C@H]4[C@@H](O)C[C@@]23C)CC1 [Example 26, 16,17-[(Cyclohexylmethylene)bis(oxy)]-11-hydroxy-21-(4-methylpiperazyn-1-yl)-pregna-1,4-diene-3,20-dione[11β,16α(R)]]
- pIC50 (IL-1β): < 6.00
- TNF-α secretion IC50 (TNF-α; [5]): Not active
- pIC50 [2, 6]: 7.51

SMILES: C[C@]12C=CC(=O)C=C1CC[C@H]1[C@@H]3C[C@H]4O[C@@H](C5CCCCC5)O[C@@]4(C(=O)CN4CC[N+](C)(Cc5ccc(C(O)CNCCCCCCOCCCCc6ccccc6)cc5OP(=O)(O)O)CC4)[C@@]3(C)C[C@H](O)[C@@]12F (stereo partly drawn) [Example 107, Salmeterol-phosphate-16,17-[(Cyclohexylmethylene)bis(oxy)]-9-fluoro-11-hydroxy-21-(4-methylpiperazinium)-pregna-1,4-diene-3,20-dione[11β,16α(R)]]
- anti-inflammatory activity (cytokine release inhibition), assessment in words (cytokine release): less active or inactive
- course in the reaction solution (with enzyme) (alkaline phosphatase): disappearance of the mutual prodrug 16
- Prodrug 16 Concentration (alkaline phosphatase; 0.00 Hours @ 37° C.): 91.0 nmol/mL
- Prodrug 16 Concentration (alkaline phosphatase; 0.59 Hours @ 37° C.): 87.7 nmol/mL
- Prodrug 16 Concentration (alkaline phosphatase; 1.19 Hours @ 37° C.): 78.6 nmol/mL
- Prodrug 16 Concentration (alkaline phosphatase; 2.96 Hours @ 37° C.): 67.8 nmol/mL
- Prodrug 16 Concentration (alkaline phosphatase; 3.56 Hours @ 37° C.): 62.3 nmol/mL
- Prodrug 16 Concentration (alkaline phosphatase; 4.15 Hours @ 37° C.): 61.6 nmol/mL
- Prodrug 16 Concentration (alkaline phosphatase; 10.67 Hours @ 37° C.): 43.1 nmol/mL
- Prodrug 16 Concentration (alkaline phosphatase; 15.41 Hours @ 37° C.): 36.7 nmol/mL
- Prodrug 16 Concentration (alkaline phosphatase; 19.56 Hours @ 37° C.): 33.1 nmol/mL
- Prodrug 16 Concentration (alkaline phosphatase; 24.30 Hours @ 37° C.): 29.3 nmol/mL
- Prodrug 16 Concentration (alkaline phosphatase; 30.82 Hours @ 37° C.): 24.8 nmol/mL
- Prodrug 16 Concentration (alkaline phosphatase; 34.97 Hours @ 37° C.): 23.0 nmol/mL
- compounds detected in the control solution (without enzyme) [1]: Only the mutual prodrug 16 was detected
- pIC50 (TNF-α; Homo sapiens, 24 h): 6.09
- pIC50 [2, 4]: 7.10

SMILES: CN1CCC(C2O[C@@H]3C[C@H]4[C@@H]5CCC6=CC(=O)C=C[C@]6(C)[C@@]5(F)[C@@H](O)C[C@]4(C)[C@]3(C(=O)CO)O2)CC1 (stereo partly drawn) [Example 57, 16,17-[(1-Methylpiperidyl-4-methylene)bis(oxy)]-9-fluoro-11,21-dihydroxypregna-1,4-diene-3,20-dione[11β,16α]]
- pIC50 (IL-1β): < 6.00
- TNF-α secretion IC50 (TNF-α; [5]): Not active
- pIC50 [2, 6]: < 6.00

SMILES: C[C@]12C=CC(=O)C=C1CC[C@H]1[C@@H]3C[C@H]4OC(c5cccnc5)O[C@@]4(C(=O)CO)[C@@]3(C)C[C@H](O)[C@@]12F (stereo partly drawn) [Example 62]
- anti-inflammatory activity (cytokine release inhibition), assessment in words (cytokine release): potent
- Steroid 14 Concentration (alkaline phosphatase; [3]): 22.6 nmol/mL
- pIC50 (IL-1β): 6.46
- pIC50 (TNF-α; [5]): 7.96
- pIC50 ([2]; read-out: Immunosuppresion IC50, mouse splenic lymphocytes, 72 h/37° C., [3H]TMD incorporation, "Not active" = less than 25% inhibition at 1000 nM): 8.72

SMILES: CN1CCN(CC(=O)[C@@]23O[C@H](C4CCCCC4)O[C@@H]2C[C@H]2[C@@H]4CCC5=CC(=O)C=C[C@]5(C)[C@@]4(F)[C@@H](O)C[C@@]23C)CC1 [Example 27, 16,17-[(Cyclohexylmethylene)bis(oxy)]-9-fluoro-11-hydroxy-21-(4-methylpiperazyn-1-yl)-pregna-1,4-diene-3,20-dione[11β,16α(R)]]
- anti-inflammatory activity (cytokine release inhibition), assessment in words (cytokine release): potent
- Steroid 13 Concentration (alkaline phosphatase; 0.00 Hours @ 37° C.): 0.0 nmol/mL
- Steroid 13 Concentration (alkaline phosphatase; 0.59 Hours @ 37° C.): 1.6 nmol/mL
- Steroid 13 Concentration (alkaline phosphatase; 1.19 Hours @ 37° C.): 4.1 nmol/mL
- Steroid 13 Concentration (alkaline phosphatase; 2.96 Hours @ 37° C.): 15.3 nmol/mL
- Steroid 13 Concentration (alkaline phosphatase; 3.56 Hours @ 37° C.): 20.2 nmol/mL
- Steroid 13 Concentration (alkaline phosphatase; 4.15 Hours @ 37° C.): 21.6 nmol/mL
- Steroid 13 Concentration (alkaline phosphatase; 10.67 Hours @ 37° C.): 49.5 nmol/mL
- Steroid 13 Concentration (alkaline phosphatase; 15.41 Hours @ 37° C.): 54.6 nmol/mL
- Steroid 13 Concentration (alkaline phosphatase; 19.56 Hours @ 37° C.): 62.9 nmol/mL
- Steroid 13 Concentration (alkaline phosphatase; 24.30 Hours @ 37° C.): 67.3 nmol/mL
- Steroid 13 Concentration (alkaline phosphatase; 30.82 Hours @ 37° C.): 69.3 nmol/mL
- Steroid 13 Concentration (alkaline phosphatase; 34.97 Hours @ 37° C.): 66.5 nmol/mL
- pIC50 (IL-1β): 7.44
- TNF-α secretion IC50 (TNF-α; [5]): Not active
- pIC50 [2, 6]: 7.92
